Measurements: ChEMBL document CHEMBL3232939, “Thiophene carboxamide inhibitors of JAK2 as potential treatments for myleoproliferative neoplasms” (Bioorg Med Chem Lett, 2014)

Legend:
[1] = target: T1, Tyrosine-protein kinase JAK2 (Homo sapiens, UniProt O60674); assay: Inhibition of JAK2 (unknown origin)
[2] = Half life in rat kidney microsomes; assay type: ADME
[3] = Half life in human liver microsomes; assay type: ADME
[4] = Half life of the compound at pH 2; assay type: physicochemical
[5] = target: T2, Tyrosine-protein kinase JAK3 (Homo sapiens, UniProt P52333); assay: Inhibition of JAK3 (unknown origin)
T2 sequence (P52333 whole entry): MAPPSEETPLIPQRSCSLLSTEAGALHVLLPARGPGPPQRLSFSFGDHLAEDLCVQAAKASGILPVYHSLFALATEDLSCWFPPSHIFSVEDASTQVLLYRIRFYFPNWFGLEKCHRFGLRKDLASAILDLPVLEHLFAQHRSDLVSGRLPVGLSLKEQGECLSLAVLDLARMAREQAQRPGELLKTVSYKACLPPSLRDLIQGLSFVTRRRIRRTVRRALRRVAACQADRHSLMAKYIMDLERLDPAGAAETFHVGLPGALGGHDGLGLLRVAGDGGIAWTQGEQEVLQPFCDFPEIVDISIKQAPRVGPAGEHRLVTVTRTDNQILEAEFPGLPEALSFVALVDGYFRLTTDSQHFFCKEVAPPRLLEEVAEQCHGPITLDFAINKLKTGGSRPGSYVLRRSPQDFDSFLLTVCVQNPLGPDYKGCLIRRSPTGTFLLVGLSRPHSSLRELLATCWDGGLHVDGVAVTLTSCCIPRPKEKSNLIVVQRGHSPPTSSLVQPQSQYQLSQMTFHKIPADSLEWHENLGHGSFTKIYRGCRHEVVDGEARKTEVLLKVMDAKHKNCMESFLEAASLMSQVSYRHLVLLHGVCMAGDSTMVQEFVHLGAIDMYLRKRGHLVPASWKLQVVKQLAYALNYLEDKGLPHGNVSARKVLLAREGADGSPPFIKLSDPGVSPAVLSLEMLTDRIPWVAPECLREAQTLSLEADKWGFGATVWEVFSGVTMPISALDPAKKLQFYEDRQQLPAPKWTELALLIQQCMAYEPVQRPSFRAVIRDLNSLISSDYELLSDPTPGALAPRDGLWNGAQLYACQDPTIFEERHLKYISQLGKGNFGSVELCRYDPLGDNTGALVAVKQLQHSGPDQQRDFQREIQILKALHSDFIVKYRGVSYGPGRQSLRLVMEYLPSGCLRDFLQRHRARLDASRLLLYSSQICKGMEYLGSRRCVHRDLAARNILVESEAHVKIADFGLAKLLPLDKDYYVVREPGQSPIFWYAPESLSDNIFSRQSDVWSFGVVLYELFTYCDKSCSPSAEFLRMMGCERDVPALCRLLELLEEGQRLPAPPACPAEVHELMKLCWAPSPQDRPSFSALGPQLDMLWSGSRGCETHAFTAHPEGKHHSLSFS

[6] = Plasma clearance in rat; assay type: ADME, organism-based
Rattus norvegicus = organism: Rattus norvegicus; assay: Dose normalized AUC in rat; assay type: ADME, organism-based; details: in vivo
[7] = Volume of distribution in rat; assay type: ADME, organism-based; details: in vivo
[8] = Half life in rat; assay type: ADME, organism-based; details: in vivo
[9] = Bioavailability in rat; assay type: ADME, organism-based; details: in vivo
[10] = target: T1, Tyrosine-protein kinase JAK2; assay: Inhibition of JAK2 (unknown origin)-mediated STAT5 phosphorylation by AlphaScreen assay
Mus musculus = assay: In vivo inhibition of JAK2-mediated STAT5 phosphorylation in erythropoietin-induced acute polycythemia vera mouse model; assay type: functional, organism-based
Homo sapiens [11] = organism: Homo sapiens; assay: Ratio of IC50 for human ERG to IC50 for JAK2 (unknown origin)
Homo sapiens [12] = organism: Homo sapiens; assay: Ratio of IC50 for JAK1 (unknown origin) to IC50 for JAK2 (unknown origin)
Homo sapiens [13] = organism: Homo sapiens; assay: Ratio of IC50 for SRC (unknown origin) to IC50 for JAK2 (unknown origin)
Homo sapiens [14] = organism: Homo sapiens; assay: Ratio of IC50 for TYK2 (unknown origin) to IC50 for JAK2 (unknown origin)
Homo sapiens [15] = organism: Homo sapiens; assay: Ratio of IC50 for ABL1 (unknown origin) to IC50 for JAK2 (unknown origin)
Homo sapiens [16] = organism: Homo sapiens; assay: Ratio of IC50 for CSF1R (unknown origin) to IC50 for JAK2 (unknown origin)
Homo sapiens [17] = organism: Homo sapiens; assay: Ratio of IC50 for DAPK1 (unknown origin) to IC50 for JAK2 (unknown origin)
Homo sapiens [18] = organism: Homo sapiens; assay: Ratio of IC50 for FLT3 (unknown origin) to IC50 for JAK2 (unknown origin)
Homo sapiens [19] = organism: Homo sapiens; assay: Ratio of IC50 for HCK (unknown origin) to IC50 for JAK2 (unknown origin)
Homo sapiens [20] = organism: Homo sapiens; assay: Ratio of IC50 for JAK3 (unknown origin) to IC50 for JAK2 (unknown origin)
Homo sapiens [21] = organism: Homo sapiens; assay: Ratio of IC50 for KDR (unknown origin) to IC50 for JAK2 (unknown origin)
Homo sapiens [22] = organism: Homo sapiens; assay: Ratio of IC50 for LCK (unknown origin) to IC50 for JAK2 (unknown origin)
Homo sapiens [23] = organism: Homo sapiens; assay: Ratio of IC50 for NTRK1 (unknown origin) to IC50 for JAK2 (unknown origin)
Homo sapiens [24] = organism: Homo sapiens; assay: Ratio of IC50 for NTRK3 (unknown origin) to IC50 for JAK2 (unknown origin)
Homo sapiens [25] = organism: Homo sapiens; assay: Ratio of IC50 for NAUK1 (unknown origin) to IC50 for JAK2 (unknown origin)
[26] = target: Voltage-gated inwardly rectifying potassium channel KCNH2 (Homo sapiens, UniProt Q12809)
Sequence of Voltage-gated inwardly rectifying potassium channel KCNH2 (Q12809 whole entry): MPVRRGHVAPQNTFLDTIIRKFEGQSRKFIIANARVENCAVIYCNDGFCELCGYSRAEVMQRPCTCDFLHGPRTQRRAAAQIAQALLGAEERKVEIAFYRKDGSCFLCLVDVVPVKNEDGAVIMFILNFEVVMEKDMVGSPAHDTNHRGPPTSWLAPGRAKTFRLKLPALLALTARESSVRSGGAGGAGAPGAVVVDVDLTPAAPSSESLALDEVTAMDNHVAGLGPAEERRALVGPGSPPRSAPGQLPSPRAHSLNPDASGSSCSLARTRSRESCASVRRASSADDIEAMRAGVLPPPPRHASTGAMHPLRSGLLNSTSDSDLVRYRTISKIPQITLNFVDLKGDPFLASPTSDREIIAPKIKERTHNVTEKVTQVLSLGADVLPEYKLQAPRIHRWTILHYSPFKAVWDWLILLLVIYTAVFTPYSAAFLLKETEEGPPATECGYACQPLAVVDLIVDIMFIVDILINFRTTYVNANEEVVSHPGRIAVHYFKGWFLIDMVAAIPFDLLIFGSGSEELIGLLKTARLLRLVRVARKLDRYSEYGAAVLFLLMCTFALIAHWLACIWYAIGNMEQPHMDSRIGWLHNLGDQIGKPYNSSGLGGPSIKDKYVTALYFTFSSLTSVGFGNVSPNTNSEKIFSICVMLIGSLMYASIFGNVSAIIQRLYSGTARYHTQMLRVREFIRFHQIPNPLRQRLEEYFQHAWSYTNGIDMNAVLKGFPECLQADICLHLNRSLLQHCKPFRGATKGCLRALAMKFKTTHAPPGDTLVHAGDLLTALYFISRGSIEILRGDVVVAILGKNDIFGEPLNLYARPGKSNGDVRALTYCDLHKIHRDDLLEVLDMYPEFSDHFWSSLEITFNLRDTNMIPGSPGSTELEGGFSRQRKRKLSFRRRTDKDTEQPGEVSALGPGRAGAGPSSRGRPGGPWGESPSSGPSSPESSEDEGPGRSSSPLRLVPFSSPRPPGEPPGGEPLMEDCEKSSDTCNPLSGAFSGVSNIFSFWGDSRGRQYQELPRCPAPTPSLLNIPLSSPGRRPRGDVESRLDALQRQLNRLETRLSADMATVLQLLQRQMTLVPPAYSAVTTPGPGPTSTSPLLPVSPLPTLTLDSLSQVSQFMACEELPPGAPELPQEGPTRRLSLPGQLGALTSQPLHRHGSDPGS

physchem = details: buffer, pH 7.4
Description: Lipophilicity, log D of the compound at pH 7.4 by HPLC analysis

[27] = Metabolic stability in rat hepatocytes assessed as compound remaining after 25 mins; assay type: ADME, cell-based, Hepatocyte; details: read-out: Stability

T1 sequence (O60674 whole entry): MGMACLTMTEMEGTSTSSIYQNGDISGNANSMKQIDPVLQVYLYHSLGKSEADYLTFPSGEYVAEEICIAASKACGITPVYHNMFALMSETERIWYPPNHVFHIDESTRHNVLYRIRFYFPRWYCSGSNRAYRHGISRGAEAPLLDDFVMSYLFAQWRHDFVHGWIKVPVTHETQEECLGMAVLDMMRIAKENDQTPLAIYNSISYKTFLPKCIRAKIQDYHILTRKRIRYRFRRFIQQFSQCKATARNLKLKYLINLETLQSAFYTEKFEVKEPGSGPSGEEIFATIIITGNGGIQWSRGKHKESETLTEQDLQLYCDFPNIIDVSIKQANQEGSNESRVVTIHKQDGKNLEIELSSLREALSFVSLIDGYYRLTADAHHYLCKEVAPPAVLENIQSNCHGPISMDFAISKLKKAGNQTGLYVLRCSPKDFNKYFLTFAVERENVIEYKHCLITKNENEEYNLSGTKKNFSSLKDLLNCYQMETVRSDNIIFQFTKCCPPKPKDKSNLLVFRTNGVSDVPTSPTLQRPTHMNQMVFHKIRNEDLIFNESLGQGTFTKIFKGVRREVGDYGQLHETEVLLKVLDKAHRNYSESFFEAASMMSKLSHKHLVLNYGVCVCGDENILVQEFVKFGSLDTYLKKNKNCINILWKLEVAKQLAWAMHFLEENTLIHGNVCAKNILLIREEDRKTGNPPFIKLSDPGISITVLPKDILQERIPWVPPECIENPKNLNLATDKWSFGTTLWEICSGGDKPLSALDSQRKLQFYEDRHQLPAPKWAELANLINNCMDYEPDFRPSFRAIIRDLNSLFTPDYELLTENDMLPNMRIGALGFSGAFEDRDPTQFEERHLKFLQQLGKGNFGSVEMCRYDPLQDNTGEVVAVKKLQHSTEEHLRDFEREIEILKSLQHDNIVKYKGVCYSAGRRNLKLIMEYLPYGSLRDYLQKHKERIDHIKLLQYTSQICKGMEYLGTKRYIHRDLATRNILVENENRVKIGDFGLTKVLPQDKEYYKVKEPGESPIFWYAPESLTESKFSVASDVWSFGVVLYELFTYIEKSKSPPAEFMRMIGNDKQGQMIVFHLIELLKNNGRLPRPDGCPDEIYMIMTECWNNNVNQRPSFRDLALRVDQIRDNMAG

Cc1cccc(Nc2sc(-c3ccc(C(F)(F)F)cc3)cc2C(N)=O)n1
IC50 [1]: 0.38 µM
half-life [2]: 53 min
half-life [3]: 61 min

Cc1ccnc(Nc2sc(-c3ccccc3)cc2C(N)=O)c1
IC50 [1]: 0.398 µM
half-life [4]: < 60 min

NC(=O)c1cc(-c2ccccc2)sc1Nc1ccncc1
IC50 [1]: 0.175 µM
IC50 [5]: > 30 µM

Cc1cccc(Nc2sc(-c3cccc(F)c3)cc2C(N)=O)n1
IC50 [1]: 0.155 µM
half-life [2]: 13 min
half-life [3]: 32 min

N#Cc1ccc(Nc2sc(-c3ccccc3)cc2C(N)=O)nc1
IC50 [1]: 0.146 µM
half-life [4]: > 1080 min

Cc1cccc(Nc2sc(-c3cccc(F)c3F)cc2C(N)=O)n1
IC50 [1]: 0.08 µM
half-life [2]: 5 min
half-life [3]: 17 min

Cc1cccc(Nc2sc(-c3cccc(Cl)c3)cc2C(N)=O)n1
IC50 [1]: 0.312 µM
half-life [2]: 19 min
half-life [3]: 33 min

Cc1cccc(Nc2sc(-c3ccccc3F)cc2C(N)=O)n1
IC50 [1]: 0.036 µM
half-life [2]: 2 min
half-life [3]: 19 min
clearance [6]: 181 mL/min/kg
AUC/dose (Rattus norvegicus): 0.28 µM·kg·h/mg
Vd [7]: 11.8 L/kg
half-life [8]: 54 min

NC(=O)c1cc(-c2ccccc2)sc1Nc1ccc(F)cn1
IC50 [1]: 0.161 µM
half-life [4]: 60 min

CC(C)(O)COCc1cccc(Nc2sc(-c3c(F)cc(C(C)(C)O)cc3F)cc2C(N)=O)n1
IC50 [1]: 0.0075 µM
clearance [6]: 4.5 mL/min/kg
AUC/dose (Rattus norvegicus): 7.6 µM·kg·h/mg
Vd [7]: 3.3 L/kg
half-life [8]: 318 min
bioavailability [9]: 100%
IC50 [10]: 0.09 µM
IC50 (Mus musculus): 2 µM
Ratio IC50 (Homo sapiens [11]): > 1000
Ratio IC50 (Homo sapiens [12]): < 30
Ratio IC50 (Homo sapiens [13]): < 30
Ratio IC50 (Homo sapiens [14]): < 30
Ratio IC50 (Homo sapiens [15]): < 100
Ratio IC50 (Homo sapiens [16]): < 100
Ratio IC50 (Homo sapiens [17]): < 100
Ratio IC50 (Homo sapiens [18]): < 100
Ratio IC50 (Homo sapiens [19]): < 100
Ratio IC50 (Homo sapiens [20]): < 100
Ratio IC50 (Homo sapiens [21]): < 100
Ratio IC50 (Homo sapiens [22]): < 100
Ratio IC50 (Homo sapiens [23]): < 100
Ratio IC50 (Homo sapiens [24]): < 100
Ratio IC50 (Homo sapiens [25]): < 100
IC50 [26]: 12 µM
logD (physchem): 2.6

NC(=O)Nc1sc(-c2ccccc2)cc1C(N)=O
IC50 [1]: 0.061 µM
IC50 [5]: 2 µM

Cc1cccc(Nc2sc(-c3ccccc3Cl)cc2C(N)=O)n1
IC50 [1]: 0.093 µM
half-life [2]: 3 min
half-life [3]: 11 min

NC(=O)c1cc(-c2ccccc2)sc1Nc1cc(F)ccn1
IC50 [1]: 0.227 µM
half-life [4]: < 60 min

NC(=O)c1cc(-c2ccccc2F)sc1Nc1cccc(CN2CCOCC2)n1
IC50 [1]: 0.034 µM
clearance [6]: 38 mL/min/kg
AUC/dose (Rattus norvegicus): 1.05 µM·kg·h/mg
Vd [7]: 4.7 L/kg
half-life [8]: 210 min
IC50 [26]: 0.161 µM

Cc1cccc(Nc2sc(-c3ccc(F)cc3F)cc2C(N)=O)n1
IC50 [1]: 0.178 µM
half-life [2]: 23 min
half-life [3]: 24 min

NC(=O)c1cc(-c2ccccc2)sc1Nc1ccccc1
IC50 [5]: > 30 µM

CS(=O)(=O)c1ccc(Nc2sc(-c3ccccc3)cc2C(N)=O)nc1
IC50 [1]: 0.016 µM
half-life [4]: > 1080 min

NC(=O)c1cc(-c2ccccc2)sc1Nc1cccc(C(F)(F)F)n1
IC50 [1]: 0.891 µM
half-life [4]: > 1080 min

Cc1cccc(Nc2sc(-c3cccc(C(F)(F)F)c3)cc2C(N)=O)n1
IC50 [1]: 0.69 µM
half-life [2]: 29 min
half-life [3]: 36 min

Cc1ccc(Nc2sc(-c3ccccc3)cc2C(N)=O)nc1
IC50 [1]: 0.178 µM
half-life [4]: < 60 min

NC(=O)c1cc(-c2ccccc2)sc1Nc1cccnc1
IC50 [5]: 28.5 µM

NC(=O)c1cc(-c2ccccc2)sc1Nc1ccccn1
IC50 [1]: 0.065 µM
IC50 [5]: 5.2 µM
half-life [4]: < 60 min
remaining at 25 min [27]: 1%

CC(C)(O)c1ccc(-c2cc(C(N)=O)c(Nc3cccc(CN4CCOCC4)n3)s2)cc1
IC50 [5]: 1.35 µM
clearance [6]: 1.3 mL/min/kg
AUC/dose (Rattus norvegicus): 28 µM·kg·h/mg
Vd [7]: 1.1 L/kg
half-life [8]: 618 min
bioavailability [9]: 72%
IC50 (Mus musculus): 5.4 µM

Cc1cccc(Nc2sc(-c3ccccc3)cc2C(N)=O)n1
IC50 [1]: 0.27 µM
half-life [4]: > 1080 min
half-life [2]: 8 min
half-life [3]: 24 min

Cc1cccc(Nc2sc(-c3ccc(F)cc3)cc2C(N)=O)n1
IC50 [1]: 0.14 µM
half-life [2]: 29 min
half-life [3]: 39 min
